How the values were obtained:
[1] = Preliminary deblocking test of 3′ vinyl group with tetrazine reagent, HPLC UV absorption at 280 nm; assay type: physicochemical; conditions: 50 μM substrate, 5 mM methyltetrazine propylamine HCl, 0 to 60 Secs
Method: 50 μM of 3′ vinyl thymidine monophosphate (TMP) was deblocked in the presence of 5 mM of methyltetrazine propylamine HCl.

Pol 1558 = assay: Template-dependent incorporation of nucleotide into primer strand by DNA polymerase, gel electrophoresis; assay type: biochemical, 9° N; conditions: Pol 1558 0.12 mg/mL, Mg2+ approximately 4 mM, 60° C. for 10 minutes
Source text: (§1) In this incorporation experiment, several DNA polymerases were used to test the feasibility of incorporating a 3′vinyl dTTP into a primer strand through template-dependent synthesis. For each test, 3′vinyl dTTP or an unblocked dTTP was exposed to one polymerase in the presence of a template strand having five A nucleotides overhang at the 5′ end, and the complementary primer strand has a fluorescent tag (FAM) at the 5′ end for visualization purposes. The DNA polymerases tested were Pol 812, Pol 963, Pol 1558, and Pol 1901, each at 0.12 mg/mL. The amino acid sequences of these mutants of 9° N polymerases are disclosed, for example, in U.S. Patent Publication Nos. 2020/0131484 A1 and 2020/0181587 A1, both of which are incorporated by reference herein in their entireties. The nucleotides include a 3′vinyl dTTP
(§2) The negative control nucleotide included a vinyl blocking group attached to the nitrogen atom of the T base typically involved in base-pair binding. Thus, it was expected that the negative control nucleotide would not be able to bind with the available adenosine bases of the template strand. The unaltered dTTP, on the other hand, was expected to be incorporated into the primer strand and could therefore act as a control for 5 incorporations.
(§3) For each test reaction, Mg^2+ concentration was at approximately 4 mM, while the polymerase of choice was at a concentration of 0.12 mg/mL. The reactions also had 20 μmol of nucleotide, nucleotide 1 or nucleotide 2 as diagrammed, and 4 μmol of the template strand (SEQ ID No. 1) and 4 μmol of the primer strand (SEQ ID No. 2). The reaction was carried at 60° C. for 10 minutes.
(§4) Lanes 4, 7, 10, and 13 show the nucleic acids formed when nucleotide 1 was available. Lanes 5, 8, 11, and 14 show the nucleic acids formed when nucleotide 2 was available. Lanes 6, 9, 12, and […] show the nucleic acids formed when unaltered dTTP was available.

Pol 1901 = assay: as above; assay type: biochemical, 9° N; conditions: Pol 1901 0.12 mg/mL, Mg2+ approximately 4 mM, 60° C. for 10 minutes
Source text: as §1, §2, §3, §4

Pol 812 = assay: as above; assay type: biochemical, 9° N; conditions: Pol 812 0.12 mg/mL, Mg2+ approximately 4 mM, 60° C. for 10 minutes
Source text: as §1, §2, §3, §4

[2] = molecular target: T1, commercially available TdT (Bos taurus, UniProt P06526); assay: Template-independent enzymatic synthesis of oligonucleotides with TdT, gel electrophoresis; assay type: biochemical; conditions: for nucleic acid formed from primer by TdT (extent of nucleotide addition): 5 or 10 minutes at room temperature
T1 construct: purchased
Method: A preliminary test of template-independent synthesis of oligonucleotides using a commercially available TdT was conducted. A primer strand with a FAM fluorescent tag at the 5′ end (SED ID No. 2) was introduced.
Three different nucleotides were included, depending on the test condition: a 3′ vinyl blocked dTTP (“3VT”), a 3′-vinyl blocked dTTP that is pre-heated at 60° C. for 5 minutes (“HVT”), and an unaltered dTTP with 3′ hydroxy (“dT”). HVT condition was used to test the thermal stability of the nucleotide. Each nucleotide was allowed to react with the template in the presence of the TdT for 5 or 10 minutes at room temperature.
A control was run simultaneously, which included a primer with one added nucleotide. […] Without being bound to a particular theory, it is believed that the 3′ blocking group on the 3VT nucleotide prevented synthesis beyond the addition of one nucleotide.

[3] = system: DNA polymerases Pol 812, Pol 963, Pol 1558, and Pol 1901; assay: Template-dependent incorporation of nucleotide into primer strand by DNA polymerases, gel electrophoresis; assay type: biochemical, 9° N; conditions: polymerase 0.12 mg/mL, Mg2+ approximately 4 mM, 60° C. for 10 minutes, template with five A overhang
Source text: as §1, §2
For each test reaction, Mg^2+ concentration was at approximately 4 mM, while the polymerase of choice was at a concentration of 0.12 mg/mL. […]

T1 sequence (P06526 whole entry): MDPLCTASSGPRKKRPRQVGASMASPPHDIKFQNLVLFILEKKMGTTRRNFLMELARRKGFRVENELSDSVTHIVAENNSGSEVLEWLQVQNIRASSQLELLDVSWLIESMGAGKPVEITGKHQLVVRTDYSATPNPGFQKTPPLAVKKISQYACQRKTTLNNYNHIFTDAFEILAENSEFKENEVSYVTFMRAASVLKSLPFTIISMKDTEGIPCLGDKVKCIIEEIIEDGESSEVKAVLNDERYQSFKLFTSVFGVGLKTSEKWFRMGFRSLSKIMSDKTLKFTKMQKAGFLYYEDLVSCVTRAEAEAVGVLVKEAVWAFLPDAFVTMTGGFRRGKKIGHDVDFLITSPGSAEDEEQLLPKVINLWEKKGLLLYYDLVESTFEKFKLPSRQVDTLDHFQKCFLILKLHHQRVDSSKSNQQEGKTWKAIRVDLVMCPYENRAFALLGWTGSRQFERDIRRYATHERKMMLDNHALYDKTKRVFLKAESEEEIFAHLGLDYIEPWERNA

## C=C[C@]1(O)C[C@H](n2cc(C)c(=O)[nH]c2=O)O[C@@H]1COP(=O)(O)O [3′ vinyl thymidine monophosphate (TMP), 3′ vinyl thymidine monophosphate]
[1]
  deblocking of 3′ vinyl group to 3′OH TMP over time: all of the 3′vinyl TMP have been consumed or deblocked

## C=CO[C@H]1C[C@H](n2cc(C)c(=O)[nH]c2=O)O[C@@H]1COP(=O)(O)OP(=O)(O)OP(=O)(O)O [nucleotide 1]
Pol 1558
  capability of incorporating the nucleotide into the primer strand, compared among the four polymerases: best performance
Pol 1901
  capability of incorporating the nucleotide into the primer strand, compared among the four polymerases: least capable of the four
Pol 812
  capability of incorporating the nucleotide into the primer strand, compared among the four polymerases: best performance
[2]
  nucleic acid formed from primer by TdT (extent of nucleotide addition): addition of just one additional nucleotide
[2]; nucleotide pre-heated at 60° C. for 5 minutes, reaction 5 or 10 minutes at room temperature
  nucleic acid formed from primer by TdT after pre-heating of the nucleotide (thermal stability): addition of just one additional nucleotide

## Cc1cn([C@H]2C[C@H](O)[C@@H](COP(=O)(O)OP(=O)(O)OP(=O)(O)O)O2)c(=O)[nH]c1=O [unaltered dTTP, Deoxythymidine triphosphate, reference compound]
[3]
  number of nucleotides incorporated into the primer strand: ≤ 5
[2]
  nucleic acid formed from primer by TdT (extent of nucleotide addition): much longer nucleic acids

— patent publication US20230332197A1, “NUCLEOSIDES AND NUCLEOTIDES WITH 3' VINYL BLOCKING GROUP” (Illumina Singapore Pte. Ltd., priority 2022, published 2023)
